# Species: Ovis aries
# Test: Ratio of omeprazole IC50 to compound IC50 for sheep gastric H(+)/K(+) ATPase
# Type: tissue-based
# Conditions: Stomach; call rule not given here
row,SMILES,Ratio IC50
1,COc1ccc(NC(=S)NC(CCC(=O)N2CCN(c3nsc4ccccc34)CC2)C(=O)N2CCN(c3nsc4ccccc34)CC2)cc1 (configuration not stated),15

# Tested on: not listed separately
# Test: Inhibition of sheep gastric H(+)/K(+)-ATPase-mediated inorganic phosphate liberation after 15 mins by Fiske Subbarow method in presence of ATP
# Type: tissue-based, Ovis aries, Stomach
# Conditions: not given
row,SMILES,IC50
1,CC(C)(C)OC(=O)NC(CCC(=O)O)C(=O)N1CCN(c2nsc3ccccc23)CC1 (configuration not stated),Not Active
2,CC(C)(C)OC(=O)NC(CCC(=O)OCc1ccccc1)C(=O)N1CCN(c2nsc3ccccc23)CC1 (configuration not stated),Not Active
3,CC(C)(C)OC(=O)NC(CCC(=O)N1CCN(c2nsc3ccccc23)CC1)C(=O)N1CCN(c2nsc3ccccc23)CC1 (configuration not stated),Not Active
4,CC(C)(C)OC(=O)NC(CCC(=O)OCc1ccccc1)C(=O)O (configuration not stated),Not Active

# Same assay, conditions: read-out: IC50
row,SMILES,IC50
1,COc1ccc2[nH]c([S+]([O-])Cc3ncc(C)c(OC)c3C)nc2c1 (configuration not stated) [OMEPRAZOLE],84 µM
2,O=C(Nc1ccc(Br)cc1)NC(CCC(=O)N1CCN(c2nsc3ccccc23)CC1)C(=O)N1CCN(c2nsc3ccccc23)CC1 (configuration not stated),46 µM
3,O=C(Nc1cccc(F)c1)NC(CCC(=O)N1CCN(c2nsc3ccccc23)CC1)C(=O)N1CCN(c2nsc3ccccc23)CC1 (configuration not stated),78 µM
4,COc1cccc(NC(=S)NC(CCC(=O)N2CCN(c3nsc4ccccc34)CC2)C(=O)N2CCN(c3nsc4ccccc34)CC2)c1 (configuration not stated),10 µM
5,COc1ccc(NC(=S)NC(CCC(=O)N2CCN(c3nsc4ccccc34)CC2)C(=O)N2CCN(c3nsc4ccccc34)CC2)cc1 (configuration not stated),5.4 µM
6,O=C(Nc1ccccc1F)NC(CCC(=O)N1CCN(c2nsc3ccccc23)CC1)C(=O)N1CCN(c2nsc3ccccc23)CC1 (configuration not stated),80 µM
7,O=C(CCC(NC(=S)Nc1ccc(F)cc1)C(=O)N1CCN(c2nsc3ccccc23)CC1)N1CCN(c2nsc3ccccc23)CC1 (configuration not stated),70 µM
8,COc1ccc(NC(=O)NC(CCC(=O)N2CCN(c3nsc4ccccc34)CC2)C(=O)N2CCN(c3nsc4ccccc34)CC2)cc1 (configuration not stated),6.2 µM
9,O=C(CCC(NC(=S)Nc1ccc(Cl)cc1)C(=O)N1CCN(c2nsc3ccccc23)CC1)N1CCN(c2nsc3ccccc23)CC1 (configuration not stated),54 µM
10,O=C(Nc1cccc(Br)c1)NC(CCC(=O)N1CCN(c2nsc3ccccc23)CC1)C(=O)N1CCN(c2nsc3ccccc23)CC1 (configuration not stated),50 µM
11,O=C(Nc1ccc(F)cc1)NC(CCC(=O)N1CCN(c2nsc3ccccc23)CC1)C(=O)N1CCN(c2nsc3ccccc23)CC1 (configuration not stated),72 µM
12,COc1cccc(NC(=O)NC(CCC(=O)N2CCN(c3nsc4ccccc34)CC2)C(=O)N2CCN(c3nsc4ccccc34)CC2)c1 (configuration not stated),11 µM
13,O=C(CCC(NC(=S)Nc1cccc(Cl)c1)C(=O)N1CCN(c2nsc3ccccc23)CC1)N1CCN(c2nsc3ccccc23)CC1 (configuration not stated),60 µM
14,O=C(CCC(NC(=S)Nc1ccccc1)C(=O)N1CCN(c2nsc3ccccc23)CC1)N1CCN(c2nsc3ccccc23)CC1 (configuration not stated),90 µM
15,O=C(Nc1ccccc1)NC(CCC(=O)N1CCN(c2nsc3ccccc23)CC1)C(=O)N1CCN(c2nsc3ccccc23)CC1 (configuration not stated),94 µM
16,COc1ccccc1NC(=O)NC(CCC(=O)N1CCN(c2nsc3ccccc23)CC1)C(=O)N1CCN(c2nsc3ccccc23)CC1 (configuration not stated),19 µM
17,O=C(CCC(NC(=S)Nc1ccccc1Br)C(=O)N1CCN(c2nsc3ccccc23)CC1)N1CCN(c2nsc3ccccc23)CC1 (configuration not stated),44 µM
18,O=C(Nc1cccc(Cl)c1)NC(CCC(=O)N1CCN(c2nsc3ccccc23)CC1)C(=O)N1CCN(c2nsc3ccccc23)CC1 (configuration not stated),56 µM
19,O=C(CCC(NC(=S)Nc1ccccc1F)C(=O)N1CCN(c2nsc3ccccc23)CC1)N1CCN(c2nsc3ccccc23)CC1 (configuration not stated),74 µM
20,O=C(Nc1ccc(Cl)cc1)NC(CCC(=O)N1CCN(c2nsc3ccccc23)CC1)C(=O)N1CCN(c2nsc3ccccc23)CC1 (configuration not stated),52 µM
21,COc1ccccc1NC(=S)NC(CCC(=O)N1CCN(c2nsc3ccccc23)CC1)C(=O)N1CCN(c2nsc3ccccc23)CC1 (configuration not stated),17 µM
22,O=C(CCC(NC(=S)Nc1cccc(Br)c1)C(=O)N1CCN(c2nsc3ccccc23)CC1)N1CCN(c2nsc3ccccc23)CC1 (configuration not stated),48 µM

# From ChEMBL document CHEMBL2401633, “tert-Butyl 1,5-bis(4-(benzo[d]isothiazol-3-yl)piperazin-1-yl)-1,5-dioxopentan-2-ylcarbamate urea/thiourea derivatives as potent H+/K(+)-ATPase inhibitors” (Bioorg Med Chem Lett, 2013)
